Tested on: 997726-040-R-J2-PDC tumor spheroids, viability
Test: Anticancer human tumor 997726-040-R-J2-PDC patient-derived squamous cell lung carcinoma cell line growth inhibition [PI3K]
Settings: spheroids with HUVEC and MSC; for viability, T/C: stronger effect = lower value; active = viability on the fitted dose curve at most 10% of control; inactive = the rest
How it was run: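 Spheroid viability read-out. Co-cultures contained the tumor line plus HUVEC and human MSCs. Each agent was paired with a PI3K inhibitor (inavolisib, alpelisib, duvelisib, copanlisib) across half-log dilutions starting at clinical Cmax, or at 10 microM when Cmax was unknown.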
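Also: spheroids exposed to compounds for seven days before readout.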

Cn1ncnc1[C@H]1c2n[nH]c(=O)c3cc(F)cc(c23)N[C@@H]1c1ccc(F)cc1 + Cc1nc(NC(=O)N2CCCC2C(N)=O)sc1-c1ccnc(C(C)(C)C(F)(F)F)c1
< 0.316 nM: IC50 (curve of first compound, second compound 1 µM) | IC50 (curve of first compound, second compound 3.16 µM) | IC50 (curve of first compound, second compound 10 µM)
> 100 nM: IC50 (curve of first compound, second compound 0.0316 µM) | IC50 (curve of first compound, second compound 0.1 µM) | IC50 (curve of first compound, second compound 0.316 µM)
inactive: viability, T/C (second compound 0.0316 µM, first compound 0.000316 µM) 83.8% | viability, T/C (second compound 0.0316 µM, first compound 0.001 µM) 81.5% | viability, T/C (second compound 0.0316 µM, first compound 0.00316 µM) 94.3% | viability, T/C (second compound 0.0316 µM, first compound 0.01 µM) 84.9% | viability, T/C (second compound 0.0316 µM, first compound 0.0316 µM) 90.7% | viability, T/C (second compound 0.0316 µM, first compound 0.1 µM) 90.4% | viability, T/C (second compound 0.1 µM, first compound 0.000316 µM) 75.5% | viability, T/C (second compound 0.1 µM, first compound 0.001 µM) 78.6% | viability, T/C (second compound 0.1 µM, first compound 0.00316 µM) 78.5% | viability, T/C (second compound 0.1 µM, first compound 0.01 µM) 80.2% | viability, T/C (second compound 0.1 µM, first compound 0.0316 µM) 80.8% | viability, T/C (second compound 0.1 µM, first compound 0.1 µM) 78.2% | viability, T/C (second compound 0.316 µM, first compound 0.000316 µM) 54.5% | viability, T/C (second compound 0.316 µM, first compound 0.001 µM) 59.4% | viability, T/C (second compound 0.316 µM, first compound 0.00316 µM) 57.2% | viability, T/C (second compound 0.316 µM, first compound 0.01 µM) 57.2% | viability, T/C (second compound 0.316 µM, first compound 0.0316 µM) 58.4% | viability, T/C (second compound 0.316 µM, first compound 0.1 µM) 58% | viability, T/C (second compound 1 µM, first compound 0.000316 µM) 46.2% | viability, T/C (second compound 1 µM, first compound 0.001 µM) 43.4% | viability, T/C (second compound 1 µM, first compound 0.00316 µM) 40.3% | viability, T/C (second compound 1 µM, first compound 0.01 µM) 41.5% | viability, T/C (second compound 1 µM, first compound 0.0316 µM) 44.9% | viability, T/C (second compound 1 µM, first compound 0.1 µM) 45.1% | viability, T/C (second compound 3.16 µM, first compound 0.000316 µM) 33% | viability, T/C (second compound 3.16 µM, first compound 0.001 µM) 29.4% | viability, T/C (second compound 3.16 µM, first compound 0.00316 µM) 30% | viability, T/C (second compound 3.16 µM, first compound 0.01 µM) 31.4% | viability, T/C (second compound 3.16 µM, first compound 0.0316 µM) 30.4% | viability, T/C (second compound 3.16 µM, first compound 0.1 µM) 29% | viability, T/C (second compound 10 µM, first compound 0.000316 µM) 17.2% | viability, T/C (second compound 10 µM, first compound 0.001 µM) 18% | viability, T/C (second compound 10 µM, first compound 0.00316 µM) 16.3% | viability, T/C (second compound 10 µM, first compound 0.01 µM) 13.6% | viability, T/C (second compound 10 µM, first compound 0.0316 µM) 18.8% | viability, T/C (second compound 10 µM, first compound 0.1 µM) 12.8%

CC(C)NCC(C(=O)N1CCN(c2ncnc3c2C(C)CC3O)CC1)c1ccc(Cl)cc1 (centres undefined)
336 nM [middle of 4 runs]: IC50 (curve of compound)
active: viability, T/C (compound 10 µM) 9.08% [middle of 4 runs]
inactive: viability, T/C (compound 0.0316 µM) 88.5% [middle of 4 runs] | viability, T/C (compound 0.1 µM) 77% [middle of 4 runs] | viability, T/C (compound 0.316 µM) 51.8% [middle of 4 runs] | viability, T/C (compound 1 µM) 25.5% [middle of 4 runs] | viability, T/C (compound 3.16 µM) 13.7% [middle of 4 runs]
